Results on three molecules are retold here after publication PMC2912408 (Biochemistry, 2010).

Each structure is given as a SMILES string.

In this assay the target is T1, rat I7 olfactory receptor (OR-I7) (Rattus norvegicus, UniProt P23270).
T1 sequence (P23270 1-327): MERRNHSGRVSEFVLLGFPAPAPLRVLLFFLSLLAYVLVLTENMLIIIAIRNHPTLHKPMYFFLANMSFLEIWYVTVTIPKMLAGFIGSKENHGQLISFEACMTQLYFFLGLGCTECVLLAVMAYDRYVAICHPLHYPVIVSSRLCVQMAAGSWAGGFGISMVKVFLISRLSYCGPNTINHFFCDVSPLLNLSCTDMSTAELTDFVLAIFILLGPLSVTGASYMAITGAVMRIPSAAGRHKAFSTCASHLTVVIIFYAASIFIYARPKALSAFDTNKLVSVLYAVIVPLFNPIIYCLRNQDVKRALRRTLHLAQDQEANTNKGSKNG
It counts as cell-based.
Take `CCCCCCCCCC=O` [decanal]: the EC50 turned out to be 16 ± 1.7 µM.

Molecule `CCCCCCCCC=O` [nonanal] gave an EC50 of 4.4 ± 0.4 µM.

Regarding `CCCCCCCCCCC=O` [undecanal], the half-maximal effective concentration (EC50) was 446 ± 16 µM.

As usually defined, the EC50 is the concentration at which the effect is half-maximal. A high value points to lower potency in that assay.
